# Measurements as given in PubChem BioAssay (NCI).
# Several values for one entry are separate records, joined by “and”; a condition that tells them apart may be missing. Equal entries are not always repeated.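 Cultured in 96-well plates, cells were exposed to test compound for 48 hours across five concentrations. GI50: concentration for 50% inhibition of growth. The concentration for full growth arrest is given as TGI.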
# How the values were obtained:
# Assay in all cases: DTP human tumour cell line panel, 48 h
# [1] = system: 786-0 renal
# [2] = system: A549 NSCLC
# [3] = system: ACHN renal
# [4] = system: BT-549 breast
# [5] = system: COLO 205 colon
# [6] = system: HCC-2998 colon
# [7] = system: M14 melanoma
# [8] = system: OVCAR-3 ovarian
# [9] = system: PC-3 prostate
# [10] = system: SK-MEL-2 melanoma
Structure (SMILES),TGI [1],TGI [2],TGI [3],TGI [4],TGI [5],TGI [6],TGI [7],TGI [8],TGI [9],TGI [10],GI50 [1],GI50 [2],GI50 [3],GI50 [4],GI50 [5],GI50 [6],GI50 [7],GI50 [8],GI50 [9],GI50 [10]
CN(C)CCSCCO,> 100 µM,> 100 µM,> 100 µM,> 100 µM,> 100 µM,> 100 µM,> 100 µM,> 100 µM,> 100 µM,> 100 µM,–,–,–,–,–,–,–,–,–,–
COc1cc(C2CC(=O)Nc3c2ccc2ccccc32)cc(Br)c1OC (stereo not drawn),> 39.3 µM,> 49.7 µM,> 100 µM,17.5 µM,1.35 µM,> 29.9 µM,2.7 µM,0.809 µM,> 100 µM,> 100 µM,0.569 µM,0.549 µM,0.798 µM,0.384 µM,0.369 µM,0.84 µM,0.308 µM,0.309 µM,0.49 µM,0.695 µM
Cc1cnccc1N=Nc1ccc(N(C)C)cc1,> 100 µM,> 100 µM,> 100 µM,49.3 µM,26.1 µM,49.6 µM,> 100 µM,72.1 µM,97.3 µM,–,–,–,–,–,–,–,–,–,–,–
NCCCN1CCN(CCCNc2nc3ccccc3c3[nH]c4ccccc4c23)CC1,2.94 µM,2.37 µM,3.75 µM,5.72 µM,1.05 µM,0.758 µM,2.76 µM,4.58 µM,2.98 µM,1.1 µM,0.421 µM,0.323 µM,0.378 µM,2.12 µM,0.214 µM,0.0895 µM,1.27 µM,0.659 µM,0.437 µM,0.567 µM
C=C(CNC(=O)c1ccccc1)c1ccc(C(=O)Nc2ccccc2N)cc1,> 100 µM,> 100 µM,> 100 µM,> 100 µM,> 100 µM,> 100 µM,–,> 100 µM,> 100 µM,> 100 µM,7.55 µM,9.52 µM,3.86 µM,19.6 µM,5.88 µM,9.3 µM,–,11.2 µM,2.95 µM,5.2 µM
N#C/C(=C\c1c(-c2ccccc2)[nH]c2ccccc12)C(=O)c1ccccc1,> 100 µM,> 100 µM,> 100 µM,> 100 µM,> 100 µM,> 100 µM,> 100 µM,5.75 µM,> 100 µM,> 100 µM,16.5 µM,7.55 µM,7.16 µM,3 µM,5.02 µM,14.5 µM,4.78 µM,2.43 µM,3.46 µM,35.2 µM
CNC1=C(C(=O)OC)SC(c2ccccc2)(c2ccccc2)SC1,> 100 µM,> 100 µM,–,> 100 µM,> 100 µM,> 100 µM,67.7 µM,> 100 µM,> 100 µM,85.8 µM,31.9 µM,9.63 µM,–,29.5 µM,23.9 µM,13.1 µM,7.12 µM,> 100 µM,15.3 µM,7.06 µM
CCNNC(=O)[C@@H]1[C@H](c2cc(OC)c(OC)c(OC)c2)c2cc3c(cc2[C@H](O)[C@H]1CO)OCO3,> 100 µM,> 100 µM,> 100 µM,–,0.646 µM,> 22.2 µM,> 100 µM,0.804 µM,> 100 µM,> 100 µM,0.495 µM,0.376 µM,0.755 µM,0.413 µM,0.266 µM,0.374 µM,0.369 µM,0.275 µM,0.391 µM,0.614 µM
CN(CC(=O)O)Cc1oc(CO)cc(=O)c1O,> 100 µM,> 100 µM,> 100 µM,> 100 µM,> 100 µM,> 100 µM,> 100 µM,> 100 µM,> 100 µM,> 100 µM,–,–,–,–,–,–,–,–,–,–
C=C1C(=O)OC2/C=C(\CO)CC/C=C(\CO)CC(OC(=O)C(C)C)C12 (stereo not drawn),20.2 µM,37 µM,3.54 µM,23.4 µM,4.18 µM,37.2 µM,19.9 µM,23.9 µM,31.1 µM,30.8 µM,–,–,–,–,–,–,–,–,–,–
O=C(CCSc1ccnc2c(C(F)(F)F)cccc12)N/N=C/c1cc(Cl)c(Cl)cc1Cl,35.1 µM,53.5 µM,35.5 µM,38.9 µM,67.7 µM,> 100 µM,–,44.5 µM,36.7 µM,> 100 µM,20.3 µM,24.8 µM,19.7 µM,18 µM,24.6 µM,34.6 µM,–,20 µM,18 µM,50.5 µM
Cc1nc2c(N3CCCC3)nc(N3CCNCC3)nc2nc1NCc1ccccc1,10.5 µM and 3.18 µM,12.6 µM and 14.2 µM,7.54 µM and 16.5 µM,10.7 µM and 14.8 µM,7.59 µM and 3.32 µM,2.95 µM,9.12 µM and 3.53 µM,9.27 µM and 10.7 µM,11 µM and 17 µM,9.42 µM and 9.97 µM,1.62 µM,5.45 µM,2.69 µM,5.05 µM,1.77 µM,–,2.64 µM,3.28 µM,–,4.48 µM
O=C(COc1cccc(/C=C2\Oc3ccc4ccccc4c3C2=O)c1)c1ccc(Cl)cc1,19 µM,> 100 µM,> 100 µM,61.7 µM,> 100 µM,> 100 µM,43 µM,48.6 µM,> 100 µM,> 100 µM,4.54 µM,> 100 µM,> 100 µM,20.5 µM,33.6 µM,> 100 µM,18.1 µM,19.8 µM,52.1 µM,> 100 µM
CC(C)C[C@H](NC(=O)CCn1ccc2ncccc2c1=O)B(O)O,> 100 µM,> 100 µM,> 100 µM,23.1 µM,> 100 µM,30.2 µM,> 47.3 µM,20.6 µM,> 100 µM,> 79.2 µM,14 µM,36.1 µM,9.45 µM,4.86 µM,10.3 µM,12.9 µM,5.45 µM,4.1 µM,35.2 µM,11 µM
COc1c(Cl)ccc2c(-c3nc4cc(Cl)c(F)cc4s3)cc(=O)oc12,5.65 µM,> 100 µM,17.2 µM,37.5 µM,38.3 µM,> 100 µM,> 100 µM,22 µM,15.5 µM,87.9 µM,2.64 µM,17.9 µM,4 µM,7.58 µM,10.1 µM,38.5 µM,26.7 µM,3.94 µM,4.46 µM,21.4 µM
Cc1ncc(C(=O)Nc2ccc(CN3CCN(C)CC3)c(C(F)(F)F)c2)cc1C#Cc1c(N)ncc2ccccc12,1.05 µM,1.03 µM,0.732 µM,1.96 µM,0.619 µM,0.899 µM,0.476 µM,1.04 µM,0.996 µM,1.25 µM,0.568 µM,0.488 µM,0.336 µM,0.894 µM,0.131 µM,0.446 µM,0.0923 µM,0.484 µM,0.461 µM,0.545 µM
COc1cc(F)c(/C=C/c2cc(/C=C/c3cc(OC)c(OC)cc3F)n(-c3cc(F)cc(F)c3)n2)cc1OC,3.22 µM,11.4 µM,46.2 µM,7.51 µM,26.8 µM,47.9 µM,3.53 µM,6.37 µM,8.17 µM,10.3 µM,1.63 µM,3.29 µM,18.1 µM,2.35 µM,3.95 µM,6.18 µM,1.74 µM,2.47 µM,2.66 µM,3.08 µM
OCC(CCc1c[nH]c2ccccc12)c1c[nH]c2ccccc12 (stereo not drawn),29.5 µM,47.2 µM,45.1 µM,30.5 µM,30.6 µM,–,28.6 µM,> 100 µM,32.3 µM,31.3 µM,–,–,–,–,–,–,–,–,–,–
CCOc1nccc2c1nc(-c1nonc1N)n2CC,> 25 µM,> 25 µM,> 25 µM,> 25 µM,> 25 µM,> 25 µM,> 25 µM,> 25 µM,> 25 µM,> 25 µM,> 25 µM,> 25 µM,> 25 µM,> 25 µM,> 25 µM,> 25 µM,> 25 µM,> 25 µM,> 25 µM,> 25 µM
COc1cccc(N=N/C(=N\NC(=O)c2cc(Br)ccc2O)c2ccc(N(CCC#N)CCC#N)cc2OC)c1,> 150 µg/mL,> 150 µg/mL,> 150 µg/mL,> 150 µg/mL,106 µg/mL,73.2 µg/mL,> 150 µg/mL,> 150 µg/mL,> 150 µg/mL,> 150 µg/mL,79.2 µg/mL,49.3 µg/mL,56.8 µg/mL,74.1 µg/mL,33.1 µg/mL,21.3 µg/mL,57.3 µg/mL,59 µg/mL,49.5 µg/mL,47.9 µg/mL
O=C(N/N=C/c1ccc(Cl)cc1Cl)c1ccc2nc(-c3ccc(Cl)cc3)[nH]c2c1,3.48 µM,4.53 µM,3.17 µM,21.3 µM,3.25 µM,3.44 µM,3.84 µM,3.39 µM,3.3 µM,4.64 µM,1.79 µM,2.16 µM,1.74 µM,4.93 µM,1.55 µM,1.82 µM,1.65 µM,1.84 µM,1.55 µM,2.09 µM
Clc1cc(-c2ccccc2)nc2ccccc12,> 100 µM,> 100 µM,> 100 µM,80.4 µM,37.5 µM,–,> 100 µM,> 100 µM,84.2 µM,38 µM,–,–,–,–,–,–,–,–,–,–
COc1cccc(CCC(=O)c2cc3c(N)c(C(=O)Nc4cccc(Cl)c4C)sc3nc2C)c1,> 100 µM,> 100 µM,> 100 µM,99.6 µM,> 45.9 µM,> 50.8 µM,> 100 µM,2.78 µM,> 100 µM,> 100 µM,0.53 µM,0.687 µM,0.743 µM,0.951 µM,0.661 µM,2.18 µM,0.446 µM,0.37 µM,0.746 µM,1.36 µM
CC(C)C[C@H](NC(=O)[C@@H](NC(=O)c1cccc(-c2ccccc2)n1)[C@@H](C)O)B(O)O,–,8.58 µM,> 11.1 µM,–,3.3 µM,0.0171 µM and 0.0189 µM,0.0207 µM,0.0191 µM and < 0.011 µM,1.94 µM,0.0187 µM and < 0.0195 µM,0.012 µM and 0.0147 µM,0.0173 µM and 0.0188 µM,0.00408 µM,0.0047 µM,0.00813 µM and < 0.0126 µM,0.00517 µM and 0.0116 µM,–,0.00385 µM,0.0236 µM,0.00387 µM
Nc1cc(S(N)(=O)=O)ccc1SSc1ccc(S(N)(=O)=O)cc1N,> 100 µM,> 100 µM,> 100 µM,> 100 µM,> 100 µM,> 100 µM,> 100 µM,> 100 µM,> 100 µM,> 100 µM,–,–,–,–,–,–,–,–,–,–
N#Cc1nc2c(S(=O)(=O)c3ccccc3)c(N)n(Cc3ccc(Cl)cc3)c2nc1C#N,15.6 µM,41.3 µM,13 µM,41.7 µM,> 50 µM,10.8 µM,> 50 µM,> 50 µM,> 50 µM,> 50 µM,7.08 µM,12.1 µM,4.23 µM,10.8 µM,17.8 µM,3.6 µM,20.9 µM,12 µM,18.3 µM,32.6 µM
CC(C)C[C@H](NC(=O)[C@H](Cc1cccc2ccccc12)NS(=O)(=O)c1cccc2cccnc12)B(O)O,12.8 µM,> 28.9 µM,> 38.8 µM,0.0395 µM,3.79 µM,0.0149 µM and 0.0389 µM,–,0.0149 µM and 0.0309 µM,0.817 µM and 0.418 µM,0.095 µM and 0.0833 µM,0.0495 µM,0.0626 µM,–,0.000863 µM,0.0288 µM,0.0174 µM,–,0.000595 µM,0.0534 µM,–
c1ccc(B2OCC(C3OB(c4ccccc4)OC4COB(c5ccccc5)OC43)O2)cc1 (stereo not drawn),> 100 µM,> 100 µM,> 100 µM,> 100 µM,> 100 µM,–,> 100 µM,> 100 µM,> 100 µM,> 100 µM,–,–,–,–,–,–,–,–,–,–
CCC1(NC(=O)c2cc(F)c(F)c(F)c2F)C(=O)NC(=O)N(C(C)C)C1=O (stereo not drawn),> 100 µM,> 100 µM,> 100 µM,44.1 µM,> 100 µM,3.97 µM,34.6 µM,53.1 µM,63.6 µM,–,> 100 µM,50.7 µM,73.5 µM,20 µM,27.5 µM,1.94 µM,10.3 µM,23.9 µM,21.6 µM,–
